“Also recorded” adds a separate entry of the source.

Assay [1] concerns the target T1, ABD-L253P (L253P β-III-spectrin ABD) binding to F-actin (Homo sapiens, UniProt O15020, L253P).
T1 construct: His-SUMO (cleaved yes); made in house; host or cells: E. coli BL21(DE3), pE-SUMOpro; actin from rabbit psoas muscle
Briefly: F-actin and ABD co-sedimentation assay. To be noted: 3 μM, 1 μM ABD, 1 μM F-actin. As for the experimental part: Actin was purified from acetone powder derived from the psoas muscle of New Zealand white rabbit (Oryctolagus cuniculus). Filamentous (F)-actin was stored for up to 3 days on ice before use in binding assays. Within an hour of the binding assay, the F-actin was clarified at 100,000×g at 4° C. for 10 min prior to setting up binding assays. The L253P β-III-spectrin ABD was expressed in E. coli BL21(DE3) (Novagen). The ABD was purified and the His-SUMO tag proteolytically removed, as previously described, except size-exclusion chromatography was not performed due to the high purity of the ABD protein. Lifeact-mCherry protein was similarly prepared. A Bradford assay was performed to determine clarified F-actin and ABD protein concentrations.
F-actin and ABD binding assays were performed as previously described. In brief, binding assays used 1 μM ABD protein, 1 μM F-actin and 1-50 μM compound (as indicated) or DMSO control for a total reaction volume of 60 μL in F-buffer containing 10 mM Tris, pH 7.5, 150 mM NaCl, 0.5 mM ATP, 2 mM MgCl2, and 1 mM DTT. Following 30 min incubation at room temperature (21° C.). F-actin was pelleted using centrifugation at 100,000×g at 25° C. for 30 min. Unbound ABD in the supernatant was measured following SDS-PAGE and Coomassie blue staining in accord. In addition, control co-sedimentations assays that lacked actin were performed to test if compounds cause ABD aggregation. […] Amount of mCherry was determined by acquiring fluorescence spectrum peak intensity at ˜600 nm using a spectral unmixing plate reader (Fluorescence Innovations, Inc) equipped with a 532 nm laser (Laserglow Technologies, Ontario, Canada) for excitation, 532 nm longpass filter for emission, and PMT for emission detection. The fraction of Lifeact-mCherry bound to F-actin was determined by subtracting from one the fraction of supernatant fluorescence intensity relative to the no-actin control sample, using the following equation: […]

For assay [2], the target named is T2, ternary complex consisting of GFP-ABD-L253P, Lifeact-mCherry, and actin (Homo sapiens, UniProt O15020, L253P).
T2 construct: L252P β-III-spectrin (human) ABD residues 1-284; expressed in transfected cells; host or cells: HEK293-6E, pTT5 vector, transient
Briefly: Primary live-cell time-resolved FRET assay (GFP-ABD-L253P plus Lifeact-mCherry). It is filed as cell-based. To be noted: 12-point concentration response 0.01 to 30 μM, 1536-well plates, average of 3 plates; read-out: EC50 of FRET reduction.

Assay [3] deals with T3, GFP-ABD-L253P and mCherry (non-specific FRET) in HEK293-6E cells (Homo sapiens, UniProt O15020, L253P).
T3 construct: L252P β-III-spectrin (human) ABD residues 1-284; expressed in transfected cells; host or cells: HEK293-6E, pTT5 vector, transient
The experiment in a line: Counter FRET assay, non-specific FRET (GFP-ABD-L253P plus mCherry). Type of assay: cell-based. To be noted: swinholide A 3 μM. As for the experimental part: At 2×10^6 cells/mL, HEK293-6E cells were transfected with GFP-ABD (2.4 μg), Lifeact-mCherry (2.4-16.8 μg), mCherry (1.2-16.8 μg), and/or pTT5 (0.8-17.6 μg) using the 293fectin protocol (Thermo Fisher Scientific) with 20 μg total DNA. The cells were harvested 24 hours later by centrifugation at 100×g for 5 min, and then washed twice with PBS. Cell viability and concentration were determined using trypan blue assay and a Countess cell counter (Invitrogen).
Using a Multidrop Combi liquid dispenser (Thermo Fisher Scientific), 10^6 cells/mL were dispersed into 1536-well and 384-well plates as 5 or 50 μL aliquots, respectively. For control and tool compound plates, 100 nL of DMSO or potential tool compound was loaded using the Mantis (Formulatrix). […] Two to three hours after sample loading, fluorescence lifetime measurements were performed using high-throughput fluorescence plate-readers provided by Photonic Pharma LLC (MN, USA), including one detecting fluorescence lifetime and another detecting fluorescence spectra, as described previously.
To develop a biosensor that monitors the binding of mutant L253P β-III-spectrin to actin filaments in live cells, a fluorescence resonance energy transfer (FRET) approach was tested. […] To measure the non-specific component to our FRET readout, we concurrently tested expression of mCherry in place of Lifeact-mCherry. […]

T1 sequence (O15020 1-284 L253P): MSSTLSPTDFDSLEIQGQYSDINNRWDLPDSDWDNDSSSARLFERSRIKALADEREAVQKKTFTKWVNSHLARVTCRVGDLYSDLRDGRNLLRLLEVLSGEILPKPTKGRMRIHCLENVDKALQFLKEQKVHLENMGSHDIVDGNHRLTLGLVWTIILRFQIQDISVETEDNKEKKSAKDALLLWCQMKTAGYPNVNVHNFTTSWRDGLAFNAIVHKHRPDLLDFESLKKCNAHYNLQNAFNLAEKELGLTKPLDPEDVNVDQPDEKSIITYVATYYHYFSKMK
T2 sequence (O15020 1-284 L253P, one chain of several): as the sequence (O15020 1-284 L253P) above
T3 sequence (O15020 1-284 L253P): as above

For orientation: EC50 means the concentration needed to bring the measured effect to its halfway point. Regarding `CO[C@H]1C[C@H](CC[C@H](C)[C@H](O)[C@H](C)[C@H]2OC(=O)/C=C/C(C)=C/C[C@H](O)C[C@@H]3C=CC[C@@H](C[C@H](OC)[C@@H](C)[C@@H](O)C[C@@H](O)[C@H](C)[C@@H]([C@@H](C)[C@@H](O)[C@@H](C)CC[C@H]4C[C@H](OC)C[C@H](C)O4)OC(=O)/C=C/C(C)=C/C[C@H](O)C[C@@H]4C=CC[C@@H](C[C@H](OC)[C@@H](C)[C@@H](O)C[C@@H](O)[C@@H]2C)O4)O3)O[C@@H](C)C1` [swinholide A], the “effect on ABD-L253P binding to actin” value is given as “did reduce; also recorded: ablation” in assay [1] and “reduce ABD-L253P binding to actin” in assay [1] (listed as swiholide A). In addition, in assay [2], the EC50 was determined as 264 nM. For the same molecule, the “effect on counter (non-specific) FRET” value in assay [3] is given as “did not significantly alter”.

These data come from US11656221B2, “Methods to identify modulators of actin-binding proteins” (Regents of the University of Minnesota, priority 2019, dated 2023).
